Measured values taken from paper PMC12118337, “Development of a Peptide Inhibitor Targeting the C‐SH2 Domain of the SHP2 Phosphatase” (Chembiochem, 2025).
Non-standard residues stand in square brackets, D forms with d. Residues, ends and D or L forms follow the SMILES beside them. *: point of attachment. 5FAM = O=C1OC2(c3ccc(O)cc3Oc3cc(O)ccc32)c2ccc(C(=O)*)cc21; pY = N[C@@H](Cc1ccc(OP(=O)(O)O)cc1)C(=O)O

Key:
SHP2 C‐SH2 domain = target: T1, SHP2 C‐SH2 domain (Homo sapiens, UniProt Q06124); assay: Fluorescence polarization (FP) binding assay, SHP2 C-SH2 domain; details: 100 nM FAM-labelled peptide, increasing C-SH2 protein, 50 mM HEPES pH 7.5, 150 mM NaCl, 1 mM EDTA, 0.05% Tween 20, FP at 10 min, three independent experiments in technical triplicates; for Kd: read-out: K D ± SEM, C‐SH2 (FP)
T1 construct: SHP2 N-SH2 domain (1–105), C-SH2 domain (106–220), PTP domain (224–541) and; His6 (pETM22 vector) (N, cleaved yes); made in house; host or cells: E. coli BL21(DE3)
T1 sequence (Q06124 106-220): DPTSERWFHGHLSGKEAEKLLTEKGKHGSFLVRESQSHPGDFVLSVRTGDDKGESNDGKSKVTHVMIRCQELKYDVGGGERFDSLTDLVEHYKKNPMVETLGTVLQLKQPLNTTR
Description: (§1) buffer and stored in 5 mL binding buffer at 4°C. His-tagged 3C protease (0.5 mg; EMBL) was added to the pooled eluted fractions and dialysed using Spectra Por Dialysis Tubing (MWCO 6-8 kDa, 23 mm; Spectrum Labs) in 1 L of binding buffer at 4°C for 3 hours, then overnight in fresh buffer. A new column was prepared by loading 2 mL Ni-NTA Agarose (Invitrogen) as a 50% slurry in EtOH. The column was washed with 10 mL H2O to remove the EtOH and equilibrated with 10 mL binding buffer. The protein/3C protease mixture was loaded onto the column and incubated for 1 hour at 4°C on a rocker. The flow through containing the protein was collected, the column was washed with 100 mL binding buffer and the 3C protease was eluted with 5 mL elution buffer. Protein purification was monitored by SDS-PAGE using NuPAGE 4-12% Bis-Tris Protein Gels (Invitrogen) run in MOPS buffer (50 mM MOPS, 50 mM Tris-HCl pH 7.7, 1 mM EDTA, 0.1% SDS) followed by Coomassie staining using Coomassie Brilliant Blue (Roth). The purified protein was dialysed into the final storage buffer (50 mM HEPES pH 7.5, 150 mM NaCl, 2 mM DTT, 20% glycerol). Aliquots were prepared and stored at -80°C until required. […]
(§2) 4. Fluorescence polarization
(§3) Fluorescence polarization (FP) was used to measure the binding of FAM-labelled peptides to the SHP2 C-SH2, SHP2 N-SH2, SHP2 PTP, CSK SH2 or Src SH2 domains. Each peptide was added to increasing concentrations of SHP2 C-SH2, SHP2 N-SH2, SHP2 PTP, CSK SH2 or Src SH2 protein in FP buffer (50 mM HEPES pH 7.5, 150 mM NaCl, 1 mM EDTA, 0.05% Tween 20) to give a final peptide […]
(§4) concentration of 100 nM in a final volume of 200 µL. For baseline subtraction, each peptide was added to FP buffer, instead of protein, with a final peptide concentration of 100 nM in a final volume of 200 µL. Samples were mixed gently then 3 x 60 µL of each sample was transferred into triplicate wells in a 96-well plate (OptiPlate-96 F Black; PerkinElmer). The FP was immediately measured on a Synergy H1 Microplate Reader (BioTek) with the excitation and emission monitored at 485 nm and 528 nm, respectively, over 30 minutes. FP values were automatically calculated by the Gen5 3.03 (BioTek) software associated with the microplate reader. Data were analysed in Excel 2016 by subtracting baseline values from FP values at 10 minutes. Data were then further analysed in GraphPad Prism 6 by plotting the baseline subtracted FP values against the protein concentration and fitting the data to a variable slope model of non-linear regression to obtain the KD values. Data are from three independent experiments, each performed in technical triplicates.
(§5) 5. Isothermal titration calorimetry […]
(§6) Analysis Software (Malvern Panalytical). For the data analysis, a 1:1 binding stoichiometry between the Ac-ITSM(pTyr) and SH2 domain was assumed. ITC measurements were performed once.

SHP2 N‐SH2 domain = target: T2, SHP2 N‐SH2 domain (Homo sapiens, UniProt Q06124); assay: Fluorescence polarization (FP) binding assay, SHP2 N-SH2 domain; details: 100 nM FAM-labelled peptide, increasing N-SH2 protein, 50 mM HEPES pH 7.5, 150 mM NaCl, 1 mM EDTA, 0.05% Tween 20, FP at 10 min, three independent experiments in technical triplicates, read-out: K D ± SEM, N‐SH2 (FP)
T2 construct: SHP2 N-SH2 domain (1–105), C-SH2 domain (106–220), PTP domain (224–541) and; His6 (pETM22 vector) (N, cleaved yes); made in house; host or cells: E. coli BL21(DE3)
T2 sequence (Q06124 1-105): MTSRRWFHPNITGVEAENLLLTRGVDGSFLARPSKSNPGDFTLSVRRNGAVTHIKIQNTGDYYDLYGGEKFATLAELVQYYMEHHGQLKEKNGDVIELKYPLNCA
Description: as §1, §2, §3, §4, §5, §6

SMILES	Kd (SHP2 C‐SH2 domain) [nM]	Kd (SHP2 N‐SH2 domain) [nM]	K D ± SEM, C‐SH2 (FP) (SHP2 C‐SH2 domain)
CC[C@H](C)[C@H](NC(=O)[C@@H](NC(=O)[C@H](C)NC(=O)[C@H](Cc1ccc(OP(=O)(O)O)cc1)NC(=O)[C@H](C)NC(=O)[C@@H](NC(=O)[C@H](CCC(N)=O)NC(=O)[C@H](CCC(=O)O)NC(=O)c1ccc2c(c1)C(=O)OC21c2ccc(O)cc2Oc2cc(O)ccc21)[C@@H](C)O)[C@@H](C)O)C(=O)N[C@H](C(=O)N[C@@H](Cc1ccccc1)C(=O)N1CCC[C@H]1C(N)=O)C(C)C [compound 4] (5FAM-EQTA[pY]ATIVFP-NH2)	95.1 ± 14.4	234 ± 17.6	–
CC[C@H](C)[C@H](NC(=O)[C@H](C)NC(=O)[C@H](C)NC(=O)[C@H](Cc1ccc(OP(=O)(O)O)cc1)NC(=O)[C@H](CCC(=O)O)NC(=O)[C@@H](NC(=O)[C@H](CCC(N)=O)NC(=O)[C@H](CCC(=O)O)NC(=O)c1ccc2c(c1)C(=O)OC21c2ccc(O)cc2Oc2cc(O)ccc21)[C@@H](C)O)C(=O)N[C@H](C(=O)N[C@@H](Cc1ccccc1)C(=O)N1CCC[C@H]1C(N)=O)C(C)C [compound 5] (5FAM-EQTE[pY]AAIVFP-NH2)	126 ± 6.2	1140 ± 585	–
CC(C)[C@H](NC(=O)[C@H](C)NC(=O)[C@@H](NC(=O)[C@H](C)NC(=O)[C@H](Cc1ccc(OP(=O)(O)O)cc1)NC(=O)[C@H](CCC(=O)O)NC(=O)[C@@H](NC(=O)[C@H](CCC(N)=O)NC(=O)[C@H](CCC(=O)O)NC(=O)c1ccc2c(c1)C(=O)OC21c2ccc(O)cc2Oc2cc(O)ccc21)[C@@H](C)O)[C@@H](C)O)C(=O)N[C@@H](Cc1ccccc1)C(=O)N1CCC[C@H]1C(N)=O [compound 6] (5FAM-EQTE[pY]ATAVFP-NH2)	–	> 10000	no binding
CC[C@H](C)[C@H](NC(=O)[C@@H](NC(=O)[C@H](C)NC(=O)[C@H](Cc1ccc(OP(=O)(O)O)cc1)NC(=O)[C@H](CCC(=O)O)NC(=O)[C@@H](NC(=O)[C@H](CCC(N)=O)NC(=O)[C@H](CCC(=O)O)NC(=O)c1ccc2c(c1)C(=O)OC21c2ccc(O)cc2Oc2cc(O)ccc21)[C@@H](C)O)[C@@H](C)O)C(=O)N[C@@H](C)C(=O)N[C@@H](Cc1ccccc1)C(=O)N1CCC[C@H]1C(N)=O [compound 7] (5FAM-EQTE[pY]ATIAFP-NH2)	> 2000	1080 ± 84	–
CC[C@H](C)[C@H](NC(=O)[C@@H](NC(=O)[C@H](C)NC(=O)[C@H](Cc1ccc(OP(=O)(O)O)cc1)NC(=O)[C@H](CCC(=O)O)NC(=O)[C@@H](NC(=O)[C@H](CCC(N)=O)NC(=O)[C@H](CCC(=O)O)NC(=O)c1ccc2c(c1)C(=O)OC21c2ccc(O)cc2Oc2cc(O)ccc21)[C@@H](C)O)[C@@H](C)O)C(=O)N[C@H](C(=O)N[C@@H](C)C(=O)N1CCC[C@H]1C(N)=O)C(C)C [compound 8] (5FAM-EQTE[pY]ATIVAP-NH2)	185 ± 30.8	> 2000	–
CC[C@H](C)[C@H](NC(=O)[C@@H](NC(=O)[C@H](C)NC(=O)[C@H](Cc1ccc(OP(=O)(O)O)cc1)NC(=O)[C@H](CCC(=O)O)NC(=O)[C@@H](NC(=O)[C@H](CCC(N)=O)NC(=O)[C@H](CCC(=O)O)NC(=O)c1ccc2c(c1)C(=O)OC21c2ccc(O)cc2Oc2cc(O)ccc21)[C@@H](C)O)[C@@H](C)O)C(=O)N[C@@H](CCCCN)C(=O)N[C@@H](Cc1ccccc1)C(=O)N1CCC[C@H]1C(N)=O [compound 9] (5FAM-EQTE[pY]ATIKFP-NH2)	72 ± 2.61	> 2000	–
CC(C)[C@H](NC(=O)[C@@H](NC(=O)[C@H](C)NC(=O)[C@H](Cc1ccc(OP(=O)(O)O)cc1)NC(=O)[C@H](CCC(=O)O)NC(=O)[C@@H](NC(=O)[C@H](CCC(N)=O)NC(=O)[C@H](CCC(=O)O)NC(=O)c1ccc2c(c1)C(=O)OC21c2ccc(O)cc2Oc2cc(O)ccc21)[C@@H](C)O)[C@@H](C)O)C(=O)N[C@@H](CCCCN)C(=O)N[C@@H](Cc1ccccc1)C(=O)N1CCC[C@H]1C(N)=O [compound 10] (5FAM-EQTE[pY]ATVKFP-NH2)	209 ± 14.4	> 3000	–
CC[C@H](C)[C@H](NC(=O)[C@@H](NC(=O)[C@H](C)NC(=O)[C@H](Cc1ccc(OP(=O)(O)O)cc1)NC(=O)[C@H](CCC(=O)O)NC(=O)[C@@H](NC(=O)[C@H](CCC(N)=O)NC(=O)c1ccc2c(c1)C(=O)OC21c2ccc(O)cc2Oc2cc(O)ccc21)[C@@H](C)O)[C@@H](C)O)C(=O)N[C@H](C(=O)N[C@@H](Cc1ccccc1)C(=O)N1CCC[C@H]1C(N)=O)C(C)C [compound 11] (5FAM-QTE[pY]ATIVFP-NH2)	40.8 ± 0.96	204 ± 10.4	–
CC[C@H](C)[C@H](NC(=O)[C@@H](NC(=O)[C@H](C)NC(=O)[C@H](Cc1ccc(OP(=O)(O)O)cc1)NC(=O)[C@H](CCC(=O)O)NC(=O)[C@@H](NC(=O)[C@H](CCC(N)=O)NC(=O)c1ccc2c(c1)C(=O)OC21c2ccc(O)cc2Oc2cc(O)ccc21)[C@@H](C)O)[C@@H](C)O)C(=O)N[C@@H](CCCCN)C(=O)N[C@@H](Cc1c[nH]c2ccccc12)C(=O)N1CCC[C@H]1C(N)=O [compound 13] (5FAM-QTE[pY]ATIKWP-NH2)	46.8 ± 1.29	368 ± 40	–
CC[C@H](C)[C@H](NC(=O)[C@@H](NC(=O)[C@H](C)NC(=O)[C@H](Cc1ccc(OP(=O)(O)O)cc1)NC(=O)[C@H](CCC(=O)O)NC(=O)[C@@H](NC(=O)[C@H](CCC(N)=O)NC(=O)c1ccc2c(c1)C(=O)OC21c2ccc(O)cc2Oc2cc(O)ccc21)[C@@H](C)O)C(C)C)C(=O)N[C@@H](CCCCN)C(=O)N[C@@H](Cc1ccccc1)C(=O)N1CCC[C@H]1C(N)=O [compound 14] (5FAM-QTE[pY]AVIKFP-NH2)	80.2 ± 4.32	840 ± 228	–
CC[C@H](C)[C@H](NC(=O)[C@@H](NC(=O)[C@H](C)NC(=O)[C@H](Cc1ccc(OP(=O)(O)O)cc1)NC(=O)[C@H](CCC(=O)O)NC(=O)[C@@H](NC(=O)[C@H](CCCCN)NC(=O)c1ccc2c(c1)C(=O)OC21c2ccc(O)cc2Oc2cc(O)ccc21)[C@@H](C)O)[C@@H](C)O)C(=O)N[C@@H](CCCCN)C(=O)N[C@@H](Cc1ccccc1)C(=O)N1CCC[C@H]1C(N)=O [compound 15] (5FAM-KTE[pY]ATIKFP-NH2)	61.5 ± 1.83	1550 ± 528	–
CC[C@H](C)[C@H](NC(=O)[C@@H](NC(=O)[C@H](C)NC(=O)[C@H](Cc1ccc(OP(=O)(O)O)cc1)NC(=O)[C@H](CCC(=O)O)NC(=O)[C@@H](NC(=O)[C@H](CCC(N)=O)NC(=O)c1ccc2c(c1)C(=O)OC21c2ccc(O)cc2Oc2cc(O)ccc21)[C@@H](C)O)[C@@H](C)O)C(=O)N[C@@H](CCCCN)C(=O)N[C@@H](Cc1ccccc1)C(=O)N1CCC[C@H]1C(N)=O [compound 16] (5FAM-QTE[pY]ATIKFP-NH2)	86 ± 2.43	1090 ± 199	–
CC[C@H](C)[C@H](NC(=O)[C@@H](NC(=O)[C@H](C)NC(=O)[C@H](Cc1ccc(OP(=O)(O)O)cc1)NC(=O)[C@H](CCC(=O)O)NC(=O)[C@@H](NC(=O)[C@H](CCC(N)=O)NC(=O)c1ccc2c(c1)C(=O)OC21c2ccc(O)cc2Oc2cc(O)ccc21)[C@@H](C)O)[C@@H](C)O)C(=O)N[C@@H](CCCCN)C(=O)N[C@@H](Cc1ccc(O)cc1)C(=O)N1CCC[C@H]1C(N)=O [compound 17] (5FAM-QTE[pY]ATIKYP-NH2)	116 ± 7.7	> 3000	–
